The values below come from ChEMBL document CHEMBL4765254, “Design, synthesis and biological evaluation of 1-alkyl-5/6-(5-oxo-4,5-dihydro-1,2,4-oxadiazol-3-yl)-1H-indole-3-carbonitriles as novel xanthine oxidase inhibitors” (Eur J Med Chem, 2020).

Structures are written as SMILES. The source made the active and inactive calls. No cut-off for these calls is given here.

Experiment [1] concerns the target T1, Xanthine dehydrogenase/oxidase (Bos taurus, UniProt P80457). Kind of experiment: Inhibition of bovine xanthine oxidase assessed as reduction in uric acid formation using xanthine as substrate preincubated for 25 mins followed by substrate addition measured at first 2 mins by spectrophotometric analysis.
Experiment [2] deals with T1, Xanthine dehydrogenase/oxidase. Briefly: Inhibition of bovine xanthine oxidase assessed as reduction in uric acid formation at 10 uM using xanthine as substrate preincubated for 25 mins followed by substrate addition measured at first 2 mins by spectrophotometric analysis relative to control. The conditions noted are these: cattle, time 27 min.
The test system of experiment [3] is Rattus norvegicus. Briefly: Hypouricemic activity in Sprague-Dawley rat model of Potassium oxonate-induced acute hyperuricemia assessed as decrease in serum uric acid level at 10 mg/kg, ig administered 1 hr after potassium oxonate treatment and measured after 3 hrs relative to control. The class given is functional. On the set-up: scale not given: the % may be the effect or the level left. The note with it: time 4 hrs.

Experiment [4] deals with Rattus norvegicus. Kind of experiment: Hypouricemic activity in Sprague-Dawley rat model of Potassium oxonate-induced acute hyperuricemia assessed as decrease in serum urate level at 10 mg/kg, ig administered 1 hr after potassium oxonate treatment and measured after 8 hrs. The class given is functional, organism-based.
The subject of experiment [5] is Rattus norvegicus. Kind of experiment: Hypouricemic activity in Sprague-Dawley rat model of Potassium oxonate-induced acute hyperuricemia assessed as percentage decrease in serum uric acid AUC (1 to 8 hrs) at 10 mg/kg, ig administered 1 hr after potassium oxonate treatment and measured after 8 hrs relative to control. It is filed as functional. On the set-up: scale not given: the % may be the effect or the level left.

Experiment [6] addresses T1, Xanthine dehydrogenase/oxidase. Briefly: Mixed type inhibition of bovine xanthine oxidase assessed as inhibitory constant using xanthine as substrate preincubated for 25 mins followed by substrate addition measured at first 2 mins by spectrophotometry based Lineweaver-Burk plot analysis.

T1 sequence (P80457 whole entry): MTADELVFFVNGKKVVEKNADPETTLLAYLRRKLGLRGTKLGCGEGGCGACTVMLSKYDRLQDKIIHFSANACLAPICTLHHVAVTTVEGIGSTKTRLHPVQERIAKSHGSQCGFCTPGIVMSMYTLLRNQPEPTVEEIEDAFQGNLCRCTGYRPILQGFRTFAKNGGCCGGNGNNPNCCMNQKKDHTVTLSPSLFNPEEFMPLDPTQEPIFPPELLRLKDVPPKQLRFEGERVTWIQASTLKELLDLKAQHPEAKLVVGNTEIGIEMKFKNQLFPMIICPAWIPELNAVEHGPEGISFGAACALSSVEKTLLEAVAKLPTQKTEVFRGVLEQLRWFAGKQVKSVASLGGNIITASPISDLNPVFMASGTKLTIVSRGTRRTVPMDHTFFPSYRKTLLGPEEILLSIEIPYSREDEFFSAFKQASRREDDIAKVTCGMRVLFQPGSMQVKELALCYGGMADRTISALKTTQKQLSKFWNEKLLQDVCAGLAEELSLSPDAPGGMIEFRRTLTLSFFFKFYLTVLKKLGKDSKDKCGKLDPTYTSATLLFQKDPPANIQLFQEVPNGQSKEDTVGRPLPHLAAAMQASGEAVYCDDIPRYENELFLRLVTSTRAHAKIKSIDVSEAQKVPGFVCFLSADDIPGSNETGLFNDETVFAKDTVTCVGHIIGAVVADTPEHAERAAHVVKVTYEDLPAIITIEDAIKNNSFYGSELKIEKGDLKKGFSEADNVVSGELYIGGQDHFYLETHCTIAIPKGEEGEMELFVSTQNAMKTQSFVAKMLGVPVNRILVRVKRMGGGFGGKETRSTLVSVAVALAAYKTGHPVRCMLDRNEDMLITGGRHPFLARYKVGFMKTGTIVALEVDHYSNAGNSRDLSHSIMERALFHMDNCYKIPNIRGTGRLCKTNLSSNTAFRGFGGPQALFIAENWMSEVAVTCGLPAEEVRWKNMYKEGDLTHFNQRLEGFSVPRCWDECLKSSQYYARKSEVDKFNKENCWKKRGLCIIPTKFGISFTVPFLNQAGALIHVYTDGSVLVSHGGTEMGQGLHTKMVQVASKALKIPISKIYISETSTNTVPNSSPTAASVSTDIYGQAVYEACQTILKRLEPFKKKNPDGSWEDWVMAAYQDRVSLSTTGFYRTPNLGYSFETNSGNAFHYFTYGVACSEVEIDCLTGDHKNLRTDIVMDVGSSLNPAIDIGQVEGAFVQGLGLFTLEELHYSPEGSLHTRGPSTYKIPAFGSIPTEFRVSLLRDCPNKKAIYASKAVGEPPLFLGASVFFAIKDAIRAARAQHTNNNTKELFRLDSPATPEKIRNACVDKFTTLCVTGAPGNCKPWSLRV

Usually IC50 stands for the concentration that gives 50% inhibition. As to `Cc1ccc(Cn2cc(C#N)c3cc(-c4noc(=O)[nH]4)ccc32)cc1`, in experiment [1], the IC50 stood at 1140 nM.

Turning to `N#Cc1cn(Cc2cccc(Br)c2)c2ccc(-c3noc(=O)[nH]3)cc12`, the IC50 in experiment [1] was 2600 nM.

Turning to `CC(C)CCn1cc(C#N)c2ccc(-c3noc(=O)[nH]3)cc21`, the IC50 in experiment [1] turned out to be 6560 nM.

On to `COc1cccc(Cn2cc(C#N)c3cc(-c4noc(=O)[nH]4)ccc32)c1`, for which the IC50 in experiment [1] was determined as 1700 nM.

`CC(C)Cn1cc(C#N)c2cc(-c3noc(=O)[nH]3)ccc21`: the IC50 in experiment [1] was determined as 1090 nM.

Consider `N#Cc1cn(Cc2cccc(Cl)c2)c2ccc(-c3noc(=O)[nH]3)cc12`, for which the IC50 in experiment [1] came out at 2930 nM.

As to `CC(C)n1cc(C#N)c2ccc(-c3noc(=O)[nH]3)cc21`, the IC50 in experiment [1] is 1800 nM.

For the compound `N#Cc1cn(Cc2cccc(F)c2)c2ccc(-c3noc(=O)[nH]3)cc12`, the IC50 in experiment [1] turned out to be 3600 nM.

On to `Cn1cc(C#N)c2cc(-c3noc(=O)[nH]3)ccc21`, for which, in experiment [1], the IC50 was determined as 5410 nM.

For the compound `CC(C)CCn1cc(C#N)c2cc(-c3noc(=O)[nH]3)ccc21`, the IC50 in experiment [1] is 1020 nM.

In the case of `N#Cc1c[nH]c2ccc(-c3noc(=O)[nH]3)cc12`, in experiment [1], the IC50 came out at 4130 nM.

For the compound `N#Cc1cn(Cc2ccc(Cl)cc2)c2ccc(-c3noc(=O)[nH]3)cc12`, the IC50 in experiment [1] amounted to 2400 nM.

Broadly, the inhibition is the share of the control response that was lost under treatment. As for `CC(C)n1ccc2cc(-c3noc(=O)[nH]3)ccc21`, the inhibition at 10 µM in experiment [2] is less than 50%.

As to `O=c1[nH]c(-c2ccc3c(ccn3C3CCCC3)c2)no1`, in experiment [2], the inhibition at 10 µM was less than 50%.

Consider `CC(C)n1cc(C#N)c2cc(-c3noc(=O)[nH]3)ccc21`, for which the IC50 in experiment [1] amounted to 410 nM.

In the case of `N#Cc1cn(Cc2ccccc2)c2ccc(-c3noc(=O)[nH]3)cc12`, in experiment [1], the IC50 is 1720 nM.

Take `COc1ccc(Cn2cc(C#N)c3cc(-c4noc(=O)[nH]4)ccc32)cc1`: the IC50 in experiment [1] is 1020 nM.

`Cc1ccc(Cn2cc(C#N)c3ccc(-c4noc(=O)[nH]4)cc32)cc1`: the IC50 in experiment [1] was found to be 1840 nM.

In the case of `N#Cc1cn(CC2CC2)c2ccc(-c3noc(=O)[nH]3)cc12`, the IC50 in experiment [1] is 880 nM.

On to `CC(C)(C)c1ccc(Cn2cc(C#N)c3cc(-c4noc(=O)[nH]4)ccc32)cc1`, for which the IC50 in experiment [1] is 1440 nM.

As for `N#Cc1cn(Cc2ccc(Br)cc2)c2ccc(-c3noc(=O)[nH]3)cc12`, the IC50 in experiment [1] was determined as 2070 nM.

The term Ki denotes the equilibrium dissociation constant of an inhibitor or competing ligand from its target. Regarding `N#Cc1cn(C2CCCC2)c2ccc(-c3noc(=O)[nH]3)cc12`, the Activity came out at 20.8% in the experiment on Rattus norvegicus [3] and 12.8% in the experiment on Rattus norvegicus [5]. The result in the experiment with Rattus norvegicus [4] was Active. Besides, the inhibitory constant (Ki) in experiment [6] worked out at 138 nM.

Regarding `CC(C)=CCn1cc(C#N)c2cc(-c3noc(=O)[nH]3)ccc21`, the IC50 in experiment [1] was determined as 1240 nM.

As to `N#Cc1cn(CC2CCCCC2)c2ccc(-c3noc(=O)[nH]3)cc12`, in experiment [1], the IC50 was 2860 nM.

In the case of `Cc1cccc(Cn2cc(C#N)c3cc(-c4noc(=O)[nH]4)ccc32)c1`, the IC50 in experiment [1] came to 2160 nM.

In the case of `N#Cc1cn(Cc2ccc(F)cc2)c2ccc(-c3noc(=O)[nH]3)cc12`, the IC50 in experiment [1] is 1710 nM.

`N#Cc1cn(C2CCCC2)c2cc(-c3noc(=O)[nH]3)ccc12`: in experiment [1], the IC50 is 820 nM.
